Data from ChEMBL document CHEMBL4308851, “Alkyl-guanidine Compounds as Potent Broad-Spectrum Antibacterial Agents: Chemical Library Extension and Biological Characterization” (J Med Chem, 2018).
Values after ≈ are worked out from the molar mass of the structure shown. Values belong to the compound of their own block, whether it stands above or below them. Active and inactive are the calls of the source. No cut-off for these calls is given here.

Assays:
Escherichia coli [1] = experiment: Disruption of Escherichia coli MG1655 ATCC 47076 outer membrane integrity assessed as induction of NPN uptake after 30 mins by NPN fluorescence-based assay; type: functional, organism-based; settings: K-12 substr. MG1655 ATCC 47076
Burkholderia cepacia = experiment: Antibacterial activity against Burkholderia cepacia isolate SI-R2 after 18 hrs by microdilution broth method; type: functional; settings: isolate SI-R2, 18 h
Klebsiella pneumoniae [2] = experiment: Antibacterial activity against Klebsiella pneumoniae isolate SI-081 after 18 hrs by microdilution broth method; type: functional; settings: isolate SI-081, 18 h
Bacillus spizizenii = experiment: Antibacterial activity against Bacillus subtilis ATCC 6633 after 18 hrs by microdilution broth method; type: functional; settings: ATCC 6633, 18 h
Acinetobacter baumannii [3] = experiment: Disruption of Acinetobacter baumannii ATCC 19606 outer membrane integrity assessed as induction of NPN uptake after 30 mins by NPN fluorescence-based assay; type: functional, organism-based; settings: ATCC 19606 = CIP 70.34 = JCM 6841
Escherichia coli [4] = experiment: Disruption of inner membrane integrity in Escherichia coli MG1655 assessed as induction of […] conversion at 256 ug/ml measured at 10 mins intervals for 1 hr; type: functional, organism-based; settings: K-12 substr. MG1655
[5] = Hemolytic activity against human erythrocytes assessed as induction of hemolysis at 64 ug/ml after 30 mins; type: cell-based, Erythrocyte; settings: read-out: Activity
Pseudomonas aeruginosa [6] = experiment: Disruption of inner membrane integrity in Pseudomonas aeruginosa PAO1 ATCC 15692 co-expressing pMP2200::PrrnB plasmid assessed as induction of OPNG conversion at 256 ug/ml measured at 10 mins intervals for 1 hr; type: functional, organism-based
Acinetobacter baumannii [7] = experiment: Antibiofilm activity against Acinetobacter baumannii ATCC 19606 assessed as effect on biofilm 3D structures at half MIC concentration after 24 hrs by AO-staining based confocal microscopy; type: functional, organism-based; settings: ATCC 19606 = CIP 70.34 = JCM 6841
Klebsiella pneumoniae [8] = experiment: Antibacterial activity against Klebsiella pneumoniae ATCC […] after 18 hrs by microdilution broth method; type: functional
Escherichia coli [9] = experiment: Antibiofilm activity against Escherichia coli MG1655 ATCC 47076 assessed as effect on biofilm 3D structures at half MIC concentration after 24 hrs by AO-staining based confocal microscopy; type: functional, organism-based; settings: K-12 substr. MG1655 ATCC 47076
Acinetobacter baumannii [10] = experiment: Antibacterial activity against Acinetobacter baumannii isolate AC-54/97 after 18 hrs by microdilution broth method; type: functional; settings: isolate AC-54/97, 18 h
Staphylococcus aureus = experiment: Antibacterial activity against Staphylococcus aureus ATCC 25923 after 18 hrs by microdilution broth method; type: functional; settings: ATCC 25923, 18 h
[11] = system: Stenotrophomonas maltophilia; experiment: Antibacterial activity against Stenotrophomonas maltophilia isolate 634/08 after 18 hrs by microdilution broth method; type: functional; settings: isolate 634/08, 18 h
Pseudomonas aeruginosa [12] = experiment: Antibiofilm activity against Pseudomonas aeruginosa PAO1 ATCC 15692 at half MIC concentration after 24 hrs by crystal violet-based assay; type: functional, organism-based
Pseudomonas aeruginosa [13] = experiment: Antibiofilm activity against Pseudomonas aeruginosa PAO1 ATCC 15692 assessed as effect on biofilm 3D structures at half MIC concentration after 24 hrs by AO-staining based confocal microscopy; type: functional, organism-based
Pseudomonas aeruginosa [14] = experiment: Disruption of Pseudomonas aeruginosa PAO1 ATCC 15692 outer membrane integrity assessed as induction of NPN uptake after 30 mins by NPN fluorescence-based assay; type: functional, organism-based
Pseudomonas aeruginosa [15] = experiment: Antibacterial activity against Pseudomonas aeruginosa ATCC 27853 after 18 hrs by microdilution broth method; type: functional; settings: ATCC 27853, 18 h
Acinetobacter baumannii [16] = experiment: Antibiofilm activity against Acinetobacter baumannii ATCC 19606 at half MIC concentration after 24 hrs by crystal violet-based assay; type: functional, organism-based; settings: ATCC 19606 = CIP 70.34 = JCM 6841
Enterobacter cloacae = experiment: Antibacterial activity against Enterobacter cloacae isolate VA-417/02 after 18 hrs by microdilution broth method; type: functional; settings: isolate VA-417/02, 18 h
Enterococcus faecalis = experiment: Antibacterial activity against Enterococcus faecalis ATCC 19433 after 18 hrs by microdilution broth method; type: functional; settings: ATCC 19433, 18 h
Escherichia coli [17] = experiment: Antibiofilm activity against Escherichia coli MG1655 ATCC 47076 at half MIC concentration after 24 hrs by crystal violet-based assay; type: functional, organism-based; settings: K-12 substr. MG1655 ATCC 47076
Streptococcus pyogenes = experiment: Antibacterial activity against Streptococcus pyogenes ATCC 12344 after 18 hrs by microdilution broth method; type: functional; settings: ATCC 12344, 18 h
Acinetobacter baumannii [18] = experiment: Antibacterial activity against Acinetobacter baumannii ATCC 17978 after 18 hrs by microdilution broth method; type: functional; settings: ATCC 17978, 18 h
Acinetobacter baumannii [19] = experiment: Disruption of inner membrane integrity in Acinetobacter baumannii ATCC 19606 co-expressing pMP2200::PrrnB plasmid assessed as induction of […] conversion at 256 ug/ml measured at 10 mins intervals for 1 hr; type: functional, organism-based; settings: ATCC 19606 = CIP 70.34 = JCM 6841
Escherichia coli [20] = experiment: Antibacterial activity against Escherichia coli CCUG after 18 hrs by microdilution broth method
[21] = Apparent permeability of the compound after 5 hrs by PAMPA; type: ADME
Escherichia coli [22] = experiment: Induction of cytoplasmic membrane depolarization in Escherichia coli at 16 ug/ml by DiSC3-5-fluorescence based assay
in vitro [23] = settings: human, Caco-2
Description: Apparent permeability across apical to basolateral side in human Caco2 cells at 10 uM after 120 mins by LC-MS/MS analysis

Escherichia coli [24] = experiment: Antibacterial activity against Escherichia coli CCUG deficient in potG gene; type: functional, organism-based
Escherichia coli [25] = experiment: Antibacterial activity against Escherichia coli CCUG deficient in potH gene; type: functional, organism-based
[26] = Binding affinity to AGP (unknown origin) assessed as dissociation constant after 30 mins by fluorescence-based assay; type: ADME, Homo sapiens
Escherichia coli [27] = experiment: Antibacterial activity against Escherichia coli MG1655 cultured in MHB supplemented with 10% human serum assessed as reduction in bacterial growth at 1 ug/ml after 24 hrs; type: functional, organism-based; settings: K-12 substr. MG1655
[28] = Binding affinity to AGP (unknown origin) assessed as Bmax after 30 mins by fluorescence-based assay; type: ADME; settings: human, isolated protein, 0.5 h
Escherichia coli [29] = experiment: Antibacterial activity against Escherichia coli CCUG deficient in potB gene; type: functional, organism-based
in vitro [30] = settings: human, Caco-2; remark: listed apart in the source
Description: Efflux ratio of apparent permeability in human Caco2 cells at 10 uM after 120 mins by LC-MS/MS analysis

Escherichia coli [31] = experiment: Bactericidal activity against Escherichia coli CCUG assessed as log reduction in CFU at 2 times MIC concentration after 1 hr by time kill assay; type: functional
Albumin [32] = molecular target: T1, Albumin (Homo sapiens, UniProt P02768); experiment: Binding affinity to human serum albumin assessed as Bmax after 30 mins by fluorescence-based assay; type: ADME; settings: isolated protein, 0.5 h
Escherichia coli [33] = experiment: Antibacterial activity against Escherichia coli CCUG deficient in potA gene; type: functional, organism-based
Albumin [34] = molecular target: T1, Albumin; experiment: Binding affinity to human serum albumin assessed as dissociation constant after 30 mins by fluorescence-based assay; type: ADME
[35] = Metabolic stability in human liver microsomes at 50 uM after 60 mins in presence of NADPH by LC-UV-MS analysis; type: ADME, Microsome; settings: read-out: Stability
Escherichia coli [36] = experiment: Antibacterial activity against Escherichia coli CCUG assessed as inhibition of microbial growth at >32 ug/ml measured up to 48 hrs; type: functional, organism-based
Escherichia coli [37] = experiment: Ratio of MIC for Escherichia coli MG1655 cultured in MHB supplemented with 10% human serum after 24 hrs to MIC for Escherichia coli MG1655 cultured in absence of 10% human serum; type: functional, K-12 substr. MG1655
Escherichia coli [38] = experiment: Antibacterial activity against Escherichia coli CCUG deficient in potD gene; type: functional, organism-based
HeLa [39] = experiment: Cytotoxicity against human HeLa cells assessed as reduction in cell viability at 256 ug/ml after 24 hrs by celltox green-based assay relative to control
[40] = 1-Octanol/Tris buffer distribution coefficient, log D of the compound at pH 7.4 by HPLC analysis; type: physicochemical
Escherichia coli [41] = experiment: Antibacterial activity against Escherichia coli CCUG deficient in potF gene; type: functional, organism-based
Escherichia coli [42] = experiment: Antibacterial activity against Escherichia coli CCUG deficient in potE gene; type: functional, organism-based
Escherichia coli [43] = experiment: Antibacterial activity against Escherichia coli CCUG deficient in potI gene; type: functional, organism-based
Escherichia coli [44] = experiment: Antibacterial activity against Escherichia coli MG1655 cultured in MHB supplemented with 5 to 40 mg/ml at 1 to 2 ug/ml after 24 hrs; type: functional, organism-based; settings: K-12 substr. MG1655
HeLa [45] = experiment: Cytotoxicity against human HeLa cells assessed as reduction in cell viability at 16 ug/ml after 24 hrs by celltox green-based assay

T1 sequence (P02768 whole entry): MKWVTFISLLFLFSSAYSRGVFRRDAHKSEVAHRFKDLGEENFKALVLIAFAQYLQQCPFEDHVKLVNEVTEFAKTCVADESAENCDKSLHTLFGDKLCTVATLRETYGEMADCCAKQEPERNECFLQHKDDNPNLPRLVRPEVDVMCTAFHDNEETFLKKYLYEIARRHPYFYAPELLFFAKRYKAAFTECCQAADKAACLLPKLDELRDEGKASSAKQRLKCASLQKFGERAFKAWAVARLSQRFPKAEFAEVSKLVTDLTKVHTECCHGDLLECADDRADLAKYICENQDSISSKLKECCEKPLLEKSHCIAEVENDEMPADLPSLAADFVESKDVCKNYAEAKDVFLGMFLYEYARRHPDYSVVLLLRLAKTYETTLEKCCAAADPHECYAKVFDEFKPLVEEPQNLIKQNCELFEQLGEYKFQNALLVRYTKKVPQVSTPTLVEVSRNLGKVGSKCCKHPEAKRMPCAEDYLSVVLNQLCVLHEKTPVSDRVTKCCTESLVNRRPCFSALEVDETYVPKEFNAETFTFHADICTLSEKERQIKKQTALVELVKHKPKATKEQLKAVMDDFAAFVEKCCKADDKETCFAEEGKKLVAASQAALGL

- MIC (Burkholderia cepacia): 32 µg/mL (≈ 33.6 µM)
- MIC (Klebsiella pneumoniae [2]): 4 µg/mL (≈ 4.2 µM)
- MIC (Bacillus spizizenii): 8 µg/mL (≈ 8.39 µM)
- MIC (Klebsiella pneumoniae [8]): 4 µg/mL (≈ 4.2 µM)
- MIC (Acinetobacter baumannii [10]): 8 µg/mL (≈ 8.39 µM)
- MIC (Staphylococcus aureus): 16 µg/mL (≈ 16.8 µM)
- MIC [11]: 8 µg/mL (≈ 8.39 µM)
- MIC (Pseudomonas aeruginosa [15]): 64 µg/mL (≈ 67.1 µM)
- MIC (Enterobacter cloacae): 4 µg/mL (≈ 4.2 µM)
- MIC (Enterococcus faecalis): 4 µg/mL (≈ 4.2 µM)
- MIC (Streptococcus pyogenes): 2 µg/mL (≈ 2.1 µM)
- MIC (Acinetobacter baumannii [18]): 8 µg/mL (≈ 8.39 µM)
- MIC (Escherichia coli [20]): 16 µg/mL (≈ 16.8 µM)
SMILES: N=C(NCCCCCCCCN(CCCCCCCCNC(=N)NCC1CC1)C(=O)N(CCCCCCCCNC(=N)NCC1CC1)CCCCCCCCNC(=N)NCC1CC1)NCC1CC1
- Activity (Escherichia coli [1]): Dose-dependent effect
- Activity (Acinetobacter baumannii [3]): Dose-dependent effect
- Activity (Escherichia coli [4]): inactive
- hemolysis at 0.5 h, 64 ug/ml [5]: 0 to 7%
- Activity (Pseudomonas aeruginosa [6]): inactive
- Activity (Acinetobacter baumannii [7]): inactive
- Activity (Escherichia coli [9]): inactive
- Activity (Pseudomonas aeruginosa [12]): inactive
- Activity (Pseudomonas aeruginosa [13]): inactive
- Activity (Pseudomonas aeruginosa [14]): Dose-dependent effect
- Activity (Acinetobacter baumannii [16]): inactive
- Activity (Escherichia coli [17]): inactive
- Activity (Acinetobacter baumannii [19]): inactive

- Papp at 5 h [21]: 0.06 ×10⁻⁶ cm/s
SMILES: CO[C@H]1/C=C/O[C@@]2(C)Oc3c(C)c(O)c4c(O)c(c5c(nc6cc(C)ccn65)c4c3C2=O)NC(=O)/C(C)=C\C=C\[C@H](C)[C@H](O)[C@@H](C)[C@@H](O)[C@@H](C)[C@H](OC(C)=O)[C@@H]1C [RIFAXIMIN]

- Papp A→B at 2 h, 10 µM (in vitro [23]): 0.19 ×10⁻⁶ cm/s
- MIC (Burkholderia cepacia): 16 µg/mL (≈ 18.9 µM)
- MIC (Klebsiella pneumoniae [2]): 2 µg/mL (≈ 2.37 µM)
- MIC (Bacillus spizizenii): 0.5 µg/mL (≈ 0.591 µM)
- Kd [26]: 0.11 µM
- Bmax [28]: 30.2%
- efflux ratio at 2 h, 10 µM (in vitro [30]): 0.65
- MIC (Klebsiella pneumoniae [8]): 2 µg/mL (≈ 2.37 µM)
- Bmax (Albumin [32]): 14%
- MIC (Acinetobacter baumannii [10]): 2 µg/mL (≈ 2.37 µM)
- Kd (Albumin [34]): 23.3 µM
- remaining at 1 h, 50 µM [35]: > 99%
- MIC (Staphylococcus aureus): 2 µg/mL (≈ 2.37 µM)
- MIC [11]: 16 µg/mL (≈ 18.9 µM)
- logD [40]: -0.79
- MIC (Pseudomonas aeruginosa [15]): 8 µg/mL (≈ 9.46 µM)
- MIC (Enterobacter cloacae): 1 µg/mL (≈ 1.18 µM)
- MIC (Enterococcus faecalis): 2 µg/mL (≈ 2.37 µM)
- MIC (Streptococcus pyogenes): 1 µg/mL (≈ 1.18 µM)
- MIC (Acinetobacter baumannii [18]): 8 µg/mL (≈ 9.46 µM)
- Papp at 5 h [21]: 1.6 ×10⁻⁶ cm/s
- MIC (Escherichia coli [20]): 2 µg/mL (≈ 2.37 µM)
SMILES: N=C(N)NCCCCCCCCN(CCCCCCCCNC(=N)NCC1CC1)C(=O)N(CCCCCCCCNC(=N)N)CCCCCCCCNC(=N)NCC1CC1
- Activity (Escherichia coli [1]): Dose-dependent effect
- Activity (Escherichia coli [22]): inactive
- Activity (Escherichia coli [24]): Active
- Activity (Acinetobacter baumannii [3]): Dose-dependent effect
- Activity (Escherichia coli [25]): Active
- Activity (Escherichia coli [4]): inactive
- hemolysis at 0.5 h, 64 ug/ml [5]: 0 to 7%
- growth inhibition (GI) (Escherichia coli [27]): inactive
- Activity (Pseudomonas aeruginosa [6]): inactive
- Activity (Escherichia coli [29]): Active
- Activity (Acinetobacter baumannii [7]): inactive
- Activity (Escherichia coli [31]): >=4 log10CFU/ml
- Activity (Escherichia coli [33]): Active
- Activity (Escherichia coli [9]): inactive
- Activity (Escherichia coli [36]): Active
- Ratio (Escherichia coli [37]): 2
- Activity (Escherichia coli [38]): Active
- Activity (Pseudomonas aeruginosa [12]): inactive
- Activity (HeLa [39]): <= 60%
- Activity (Pseudomonas aeruginosa [13]): inactive
- Activity (Pseudomonas aeruginosa [14]): Dose-dependent effect
- Activity (Escherichia coli [41]): Active
- Activity (Acinetobacter baumannii [16]): inactive
- Activity (Escherichia coli [42]): Active
- Activity (Escherichia coli [43]): Active
- Activity (Escherichia coli [44]): Active
- Activity (Escherichia coli [17]): inactive
- Activity (HeLa [45]): Non-Toxic
- Activity (Acinetobacter baumannii [19]): inactive
